Test results reported in PubChem BioAssay AID1259407 (Chemical Carcinogenesis Research Information System (CCRIS), 2018).
The source made the active and inactive calls. How the calls were made is not given here.

Tested on: CCRIS mutagenicity, Ames/micronucleus/aberration tests
Assay: CCRIS mutagenicity studies
[1] = Test System: AMES SALMONELLA TYPHIMURIUM, Strain/Indicator: TA98, Metabolic Activation: NONE, Method: PREINCUBATION
[2] = Test System: AMES SALMONELLA TYPHIMURIUM, Strain/Indicator: TA100, Metabolic Activation: NONE, Method: PREINCUBATION

c1ccc2c3c(ccc2c1)-c1cccc2cccc-3c12
mutagenic call (Test System: AMES SALMONELLA TYPHIMURIUM, Strain/Indicator: TA97A, Metabolic Activation: NONE, Method: PREINCUBATION): inactive; negative
mutagenic call [1]: inactive; negative
mutagenic call [2]: inactive; negative
mutagenic call (Test System: AMES SALMONELLA TYPHIMURIUM, Strain/Indicator: TA100, Metabolic Activation: RAT, LIVER, S-9, AROCLOR 1254, Method: STANDARD PLATE): active; positive

Nc1snc2ccc(Cl)cc12
mutagenic call (Test System: AMES SALMONELLA TYPHIMURIUM, Strain/Indicator: TA98, Metabolic Activation: NONE, Method: STANDARD PLATE): inactive; negative
mutagenic call (Test System: AMES SALMONELLA TYPHIMURIUM, Strain/Indicator: TA98, Metabolic Activation: S-9, Method: STANDARD PLATE): active; positive
mutagenic call (Test System: AMES SALMONELLA TYPHIMURIUM, Strain/Indicator: TA100, Metabolic Activation: NONE, Method: STANDARD PLATE): inactive; negative
mutagenic call (Test System: AMES SALMONELLA TYPHIMURIUM, Strain/Indicator: TA100, Metabolic Activation: S-9, Method: STANDARD PLATE): active; positive
mutagenic call (Test System: AMES SALMONELLA TYPHIMURIUM, Strain/Indicator: TA1535, Metabolic Activation: NONE, Method: STANDARD PLATE): inactive; negative
mutagenic call (Test System: AMES SALMONELLA TYPHIMURIUM, Strain/Indicator: TA1535, Metabolic Activation: S-9, Method: STANDARD PLATE): inactive; negative
mutagenic call (Test System: AMES SALMONELLA TYPHIMURIUM, Strain/Indicator: TA1537, Metabolic Activation: NONE, Method: STANDARD PLATE): inactive; negative
mutagenic call (Test System: AMES SALMONELLA TYPHIMURIUM, Strain/Indicator: TA1537, Metabolic Activation: S-9, Method: STANDARD PLATE): active; positive

N#[N+]c1cnc([O-])[nH]c1=O
mutagenic call [1]: active; positive
mutagenic call (Test System: AMES SALMONELLA TYPHIMURIUM, Strain/Indicator: TA98, Metabolic Activation: RAT, LIVER, S-9, AROCLOR 1254, Method: PREINCUBATION): active; positive
mutagenic call [2]: active; positive
mutagenic call (Test System: AMES SALMONELLA TYPHIMURIUM, Strain/Indicator: TA100, Metabolic Activation: RAT, LIVER, S-9, AROCLOR 1254, Method: PREINCUBATION): active; positive

CCNC(=O)CNC(=O)C=[N+]=[N-]
mutagenic call (Test System: UDS RODENT CELLS, Strain/Indicator: THY INCORP (NON-S-PHASE), Metabolic Activation: NONE, Method: AUTORADIOGRAPHY): active; positive
